Experiments:
[1] = approximate acute toxicity (LD50); conditions: in vivo, po; mouse, per os, single administration of increasing doses, measured on the seventh day after treatment
Method: In view of their high therapeutic index, the compounds of the invention can be used safely in medicine. For example, the approximate acute toxicity (LD50) of the compounds 2-(3-pyridyl)-5-oxo-5H-1,3,4-thiadiazolo[3,2-a]pyrimidine-6-N-(2-pyridyl)-carboxamide and 5-oxo-5H-1,3,4-thiadiazolo[3,2-a]pyrimidine-6-N-(2-pyridyl)-carboxamide in the mouse, determined by single administration of increasing doses and measured on the seventh day after treatment, is higher than 800 mg/kg per os. Analogous toxicity data have been found for other compounds of the invention.

[2] = system: edema formation in the hind paw; test: Carrageenin induced oedema (edema formation in the hind paw of rats); format: in vivo; conditions: rat, oral administration; approximate ED50; read-out: Anti-inflammatory activity, Carrageenin induced oedema, ED50
Excerpt: (§1) The hydroxy protecting groups, for instance, may be removed by mild reaction conditions, e.g. acid hydrolysis.
(A) the edema formation in the hind paw of rats in response to a subplantar injection of carrageenin, according to the method of C. A. Winter et al. (J. Pharmac. Exp. Therap. 1963, 141, 369) and P. Lence (Arch. Int. Pharmacodyn., 1962, 136, 237), and
(§2) The following Tables I and II show, for example, the approximate ED50 values of the anti-inflammatory activity in the above mentioned tests, in the rat after oral administration, for a compound of this invention: 2-(3-pyridyl)-5-oxo-5H-1,3,4-thiadiazolo[3,2-a]pyrimidine-6-N-(2-pyridyl)-carboxamide (internal code FCE 22914): […]

[3] = system: Reversed Passive Arthus Reaction (RPAR) in rat paw; test: Reversed Passive Arthus Reaction (RPAR) in rat paw; format: in vivo; conditions: oral administration, approximate ED50, read-out: Anti-inflammatory activity, RPAR reaction, ED50
Excerpt: as §1
(B) the Reversed Passive Arthus Reaction (RPAR) in rat paw, induced by the interaction of antigen and antibody resulting in the formation of precipitating immune complex, followed by fixation of complement and accumulation of polymorphonuclear leucocytes at a focal point (D. K. Gemmell, J. Cottney and A. J. Lewis, Agents and Actions 9/1 pag. 107, 1979).
as §2

[4] = system: mice; test: phenylquinone test in mice (analgesic activity); format: in vivo; conditions: 50 mg/kg, oral administration
Method: The analgesic activity was assessed, for example, by means of the phenylquinone test in mice according to Siegmund: [Siegmund et al. Proc. Soc. Exper. Biol. Med. 95, 729 (1957)]. In this test the compound FCE 22914, for example, gives a 30% inhibition at 50 mg/kg after oral administration. It is known that certain thiadiazolo-pyrimidine derivatives are endowed with anti-allergic and anti-asthma activity, e.g. those described in Published Japan Patent Application No. J57 142989, but such compounds are devoid of any anti-inflammatory and/or analgesic activity.

SMILES	LD50 at 168 h [1] [mg/kg]	ED50 [2] [mg/kg]	ED50 [3] [mg/kg]	inhibition in phenylquinone test (analgesic activity) [4] [%]
O=C(Nc1ccccn1)c1cnc2scnn2c1=O [5-oxo-5H-1,3,4-thiadiazolo[3,2-a]pyrimidine-6-N-(2-pyridyl)-carboxamide]	> 800			
O=C(Nc1ccccn1)c1cnc2sc(-c3cccnc3)nn2c1=O [FCE 22914, 2-(3-pyridyl)-5-oxo-5H-1,3,4-thiadiazolo[3,2-a]pyrimidine-6-N-(2-pyridyl)-carboxamide]	> 800	45.9	85.2	30
